Laboratory results reported in patent publication US20240139149A1, “THERAPEUTIC USES OF UROLITHIN DERIVATIVES” (Vandria SA, priority 2022, published 2024).

Legend:
APTK-s.c. tumors = assay: Subcutaneous APTK organoid tumors, UA diet, with TIL analysis; assay type: in vivo, mouse
Procedure: Urolithin A containing diet (2.28 g/kg) or AIN− 93G control food (Brogaarden) were given ad libitum once introduced for experimental purpose at the indicated time.
For subcutaneous colorectal cancers, APTK organoids were mechanistically disrupted, incubated with Accutase to generate a single cell suspension and reconstituted in PBS 20% Matrigel (Corning) for subcutaneous transplantation. Tumor sizes were measured at the indicated time after transplantation and tumor volume quantified as ½(width2×length). Urolithin A or control food regiment were initiated either one week before tumor challenge or 11 days after tumor development. Therapeutic diets were maintained throughout the experiment unless indicated otherwise.
Tumors were minced and digested with Tumor & Tissue Dissociation Reagent (BD Horizon) for 30 min. The remaining organ pieces were filtered through a 70 m cell strainer. Cells were then washed with PBS 1% BSA and 2 mM EDTA. Immune cells were enriched on a 30%/40%/75% Percoll gradient after a 1700 rpm 17 min centrifugation. Then, tumor immune filtrates or activated T cells were stained with Fixable Viability Dye-eF780 (65-0865-14; eBioscience), αCD45-FITC (30-F11; 11-0451-85; eBioscience), αCD11b-BV650 (M1/70; 56340; BD) α-CD11c-BV785 (HL3; 563735; BD), aLy6G-BV605 (53-6.7; 563005; BD), aLy6C-AF700 (HK1.4; 128024; Biolegend), aF4/80-PE (BM8; 12-4801-82, eBioscience), aPD-L1-PECy7 (MIH5; 25-5982-80, eBioscience); or with Fixable Viability Dye-eF780 (ebioscience), αCD45-BV786 (30-F11; 564225; BD), αCD4-BUV496 (GK1.5; 564667; BD), αCD8-BV605 (100744; Biolegend), aPD1-APC (J43; 17-9985-82; eBioscience), aTIM-3-PECy7 (RMT3-23; 119715; Biolegend), aCTLA4-PE (UC10-4B9; 106305; Biolegend) and aLag3-BV421 (C9B7W; 125221, Biolegend); or with Fixable Viability Dye-eF780 (eBioscience), αCD4-FITC (H129.19; 553650; BD), αCD8-APC (53-6.7; 17-0081-83; eBioscience), αCD44-AF400 (IM7; 103026; Biolegend), αCD62L-BV785 (MEL-14; 104440; Biolegend), αSca-1-PerCP-Cy5.5 (D7; 45-5981-82; eBioscience), αCD95-PE (Jo2; 554258; BD); or with Fixable Viability Dye-eF780 (eBioscience), αCD8-BV650 (53-6.7; 563234; BD), αCD4-BUV496 (GK1.5; 564667; BD), αCD127-APC (A7R34; 17-1271-82; eBioscience), αCD95-FITC (SA367H8;152605; Biolegend), αCD44-AF400 (IM7; 103026; Biolegend), αCD62L-BV785 (MEL-14; 104440; Biolegend), αSca-1-PerCP-Cy5.5 (D7; 45-5981-82; eBioscience) followed by intracellular staining of aTCF1-PE (S33-966; 564217; BD), or PGC-1α (sc-518025; D-5; santa cruz), or aCyclinD1 (MA5-28534, DCS-6; Invitrogen) with transcription factor buffer set kit (BD Biosciences). To study cytokine expression, tumor immune infiltrates were stimulated ex vivo with 20 ng/mL PMA and 1 g/mL Ionomycin (Sigma) for 3 h in T cell activation medium with Brefeldin A (Biolegend).

[1] = test system: cortical neurons and microglial cells injured with Aβ1-42; assay: Rat primary culture of cortical neurons and microglial cells injured with Aβ1-42; assay type: cell-based
Procedure: Pregnant female rat (Wistar) of 15 days of gestation were killed using a deep anesthesia with CO2 chamber and a cervical dislocation. Fetuses were collected and immediately placed in ice-cold L15 Leibovitz medium with a 2% penicillin (10,000 U/mL) and streptomycin (10 mg/mL) solution (PS) and 1% bovine serum albumin (BSA). Cortex were specifically dissected and then were treated for 20 min at 37° C. with a trypsin-EDTA solution at a final concentration of 0.05% trypsin and 0.02% EDTA. The dissociation was stopped by addition of Dulbecco's modified Eagle's medium (DMEM) with 4.5 g/L of glucose, containing DNAse I grade II (final concentration 0.5 mg/mL) and 10% fetal calf serum (FCS). Cells were mechanically dissociated by three forced passages through the tip of a 10-mL pipette. Cells were then centrifuged at 515×g for 10 min at 4° C. The supernatant was discarded, and the pellet was resuspended in a defined culture medium consisting of Neurobasal medium with a 2% solution of B27 supplement, 2 mmol/liter of L-glutamine, 2% of PS solution, 10 ng/mL of brain-derived neurotrophic factor (BDNF), 2% of heat-inactivated horse serum, 2% of heat-inactivated FCS, 1 g/L of glucose, 1 mM of sodium pyruvate, and 100 μM of non-essential amino acids. The presence of serum in the medium allows the growth of the microglial cells. Viable cells were counted in a Neubauer cytometer, using the trypan blue exclusion test.
The cells were seeded at a density of 45 000 per well in 96-well plate precoated with poly-L-lysine and were cultured at 37° C. in an air (95%)—CO2 (5%) incubator. The medium was changed every 2 days.
On day 11 of culture, the compounds were dissolved in the appropriate vehicle and pre-incubated with the primary cortical neurons for one hour (1 h), before Aβ1-42 exposure.
On day 11 of culture, the cortical neurons were injured with the AP 1-42 peptide. AP 1-42 peptide was dissolved in the defined culture medium mentioned above, at an initial concentration of 20 μM. The solution was gently agitated for 3 days at 37° C. in the dark and immediately used after being properly diluted in culture medium to the concentration used (5 μM, 0.5 μM oligomers precisely evaluated by automatic WB). The AP 1-42 solution was applied on the culture at […] (0.5 μM oligomers, AβO), in presence of the compound, for 72 hours.
72 hours after the application of Aβ, the cell culture supernatant was removed. Cells were then washed with phosphate-buffered saline (PBS) and fixed with a cold solution of ethanol (95%) and acetic acid (5%) for 5 min at −20° C. After two washing steps with cold PBS, cells permeabilized and unspecific binding sites were blocked with a solution of PBS containing 0.1% of saponin and 1% of FCS, for 15 min at RT. Cells were incubated for 2 hours with: • a) Monoclonal anti-MAP2 antibody produced in mouse at dilution of 1/400 in PBS containing 1% FCS, 0.1% saponin, for 2 hours at room temperature. • b) Rabbit polyclonal antibody anti-SIRP alpha/CD172a (OX-41) at dilution of 1/400 in PBS containing 1% fetal calf serum and 0.1% of saponin (this antibody stains specifically the microglia and will allow to evaluate the activation of the microglial cells).
For each condition, 30 pictures (representative of the whole well area) were automatically taken using ImageXpress® (Molecular Devices) at 20× magnification using the same acquisition parameters. From images, the analyses were automatically performed by MetaXpress® (Molecular Devices). The following read-outs were measured: • Total neuron survival (number of MAP-2(+) neurons), • Total length of neurite network of MAP-2(+) neurons (in μm) • Total area of activated microglia (area of OX-41 signal, in μm^2)
All values are expressed as mean+/−SEM (standard error of the mean). Statistical analysis was performed by one-way ANOVA followed by Fisher's LSD test, with GraphPad Prism. p<0.05 was considered significant.

mouse T lymphocytes = assay: Mitochondrial content (Mitotracker positive cells) in mouse T lymphocytes; assay type: cell-based; conditions: 2 μM, 72 h
Procedure: Splenic murine T cells were isolated from mice aged 6-20 weeks by negative selection with EasySep mouse T cell isolation kit (Stem cell) according to the manufacturer's instructions. T cell activation was initiated using CD3/CD28 activation beads (11456D; ThermoFisher Scientific) at a ratio of 25 μl dynabeads per 0.5×10^6 T-cells. Cells were activated with test compounds at 2 μM or DMSO in T cell activation Medium (RPMI (ThermoFisher Scientific) 10% FBS (South America origin), 10 mM Hepes (Sigma), 1× Non-Essential Amino Acid, 1 mM Sodium Pyruvate, 50 μM β-Mercaptoethanol, 100 U/ml penicillin, 100 μg/ml streptomycin and 2 mM Glutamax (ThermoFisher Scientific) for 72 h. For subsequent analysis, activating beads were magnetically removed prior staining.
For flow cytometric analysis of mitochondria 500 μl of Mitotracker Red (200 nM; ThermoFisher) was applied followed by surface staining.
Cell doublets and cells debris were excluded from the analysis by gating FSC-A vs FSC-H followed by SSC-A vs SSC-H dot plots and FSC-A vs SSC-A dot plots, respectively. eFluor 780 highly positive cells, i.e, dead cells, were gated out of the analysis. Data was acquired on Canto II (BD), Fortessa (BD) and Aurora (Cytek) cytometers and analyzed with FlowJo.

[2] = C57BL/6 mice, s.c. APTK organoids, UA-supplemented diet
[3] = 123 and 370 nM, Aβ1-42 72 hours

Structure (SMILES) | CD8+ T cell infiltration (APTK-s.c. tumors; [2]) | tumor growth (APTK-s.c. tumors; [2]) | tumor response in combination with PD-1 blockade (APTK-s.c. tumors; C57BL/6 mice, s.c. APTK tumors, UA diet plus α-PD-1) | tumor suppressive effect in Pink1−/− mice (APTK-s.c. tumors; Pink1−/− mice, s.c. APTK organoids, UA diet) | protective effect on tumor growth in Rag1−/− mice (APTK-s.c. tumors; Rag1−/− mice (no mature T and B cells), s.c. APTK organoids, UA diet) | CD4+ TSCM, dendritic cells, TAMs, MDSC subsets in tumors (APTK-s.c. tumors; UA diet vs control diet) | CD8+CD44loCD62LhiSca1hi T cells in APTK-induced tumors (APTK-s.c. tumors; UA diet vs control diet) | TCF1 expression in tumor infiltrating CD8+ T cells (APTK-s.c. tumors; UA diet vs control diet) | mitochondrial content in TIL of APTK tumors (APTK-s.c. tumors; UA diet vs control diet) | exhaustion markers PD-1, CTLA-4 and Tim3 in CD8+ T cells (APTK-s.c. tumors; UA-fed mice) | TNFα and IFNγ in tumor infiltrating CD8+ T cells (APTK-s.c. tumors; restimulated with PMA/ionomycin ex vivo) | microglial activation (conclusion) [1] | neuroprotection in the inflammatory in vitro model (conclusion) [1] | neurite network of cortical neurons (MAP-2) [1, 3] | survival of cortical neurons (MAP-2) [1, 3] | microglial activation (OX-41) ([1]; between 41.1 nM and 370 nM, Aβ1-42 72 hours) | increase in the percentage of Mitotracker positive cells vs DMSO (mouse T lymphocytes) [%] | percentage of Mitotracker positive cells (mouse T lymphocytes; DMSO 44%) [%]
O=c1oc2cc(O)ccc2c2ccc(O)cc12 [UA, Urolithin A] | enhanced | significantly reduced | sensitized APTK tumors to PD-1 blockade | abrogated the tumor suppressive effect | abrogated the protective effect | no change | marked increase | increased expression | increased mitochondrial content | reduction | stronger induction |  |  |  |  |  |  | 
O=c1oc2cc(O)ccc2c2ccc(OC3CCOCC3)cc12 [compound 33, 3-hydroxy-8-((tetrahydro-2H-pyran-4-yl)oxy)-6H-benzo[c]chromen-6-one] |  |  |  |  |  |  |  |  |  |  |  | significantly reduce | neuroprotective | significantly protect | significantly protect | significant decrease | 19 | 52.5
